Measured values as given in article PMC9050923, “6,N^2-Diaryl-1,3,5-triazine-2,4-diamines: synthesis, antiproliferative activity and 3D-QSAR modeling” (RSC Advances, 2020).

Tests used:
Type in all cases: cell-based
[1] = tested on: MDA-MB231; experiment: MTT assay, MDA-MB231 breast cancer cells; details: Homo sapiens, MDA-MB-231; 10 μM, 72 h after the treatment, MTT, mean of three independent experiments; read-out: Percentage of cell viability MDA-MB231
Method: (§1) The prepared compounds 1–126 were tested on three breast cancer cell lines namely, MDA-MB231, SKBR-3 and MCF-7 using MTT assay. SKBR-3 and MCF-7 cell lines are estrogen and progesterone hormone positive cell lines often used as a model for the hormone therapy.[18] MDA-MB231 is triple negative breast cancer cell line, which is negative to estrogen and progesterone receptors and human epidermal growth factor receptor 2, a perfect model for chemotherapy.[18] Initially, all the prepared compounds 1–126 were tested on these three cancer cell lines at the screening concentration (10 μM) and percentage of cell viability was calculated 72 h after the treatment (Table 1).
(§2) The growth inhibitory effect of the compounds was determined on breast tumor cell line (MDA-MB231, SKBR-3 and MCF-7) at different concentrations with methotrexate and nilotinib as positive controls (Table 2).
(§3) The cytotoxic activity of 6,N^2-diaryl-1,3,5-triazine-2,4-diamines (1–126) was evaluated against three breast carcinoma cell lines (MDA-MB231, SKBR-3, and MCF-7) and normal breast cell line (MCF-10A) by MTT assay.[22] All cells were obtained from the American Type Culture Collection and were grown in 10% fetal bovine serum and 1% pen-strep antibiotic supplemented media (DMEM for MDA-MB231 and SKBR-3, RPMI for MCF-7, and MEGM for MCF-10A). For MTT assay, 20 000 to 75 000 cells per mL (based on the doubling time for each cell line) were seeded in 96 well plates and incubated for 24 h at 37 °C in 5% CO2 incubator. Then, compounds at different concentrations were added followed by the incubation at 37 °C for 72 h. After that, MTT solution (0.5 mg mL^−1) was added and the plates were incubated for another 4 h. The supernatant was then discarded and 100 μL of DMSO was added to each well. The plates were then read by Tecan NanoQuant (model: infinite m200 pro) plate reader and absorbance was measured at 570 nm. GI50 values were calculated using sigmoidal concentration–response curves (see ESI ^†) generated using the GraphPad Prism 7 program. Three independent experiments were carried out and the data were represented as mean of the three experiments.

[2] = tested on: MCF-7; experiment: MTT assay, MCF-7 breast cancer cells; details: Homo sapiens, MCF7, 10 μM, 72 h after the treatment, mean of three independent experiments, read-out: Percentage of cell viability MCF-7
Method: as §1, §2, §3

[3] = tested on: SKBR-3; experiment: MTT assay, SKBR-3 breast cancer cells; details: Homo sapiens, SK-BR-3; 10 μM, 72 h after the treatment, MTT, mean of three independent experiments; read-out: Percentage of cell viability SKBR-3
Method: as §1, §2, §3

Compound	viability at 10 µM [1]	viability at 10 µM [2]	viability at 10 µM [3]
COc1ccc(Nc2nc(N)nc(-c3cccc(C)c3)n2)cc1 [Compound 57, N ^2-(4-Methoxyphenyl)-6-(3-methylphenyl)-1,3,5-triazine-2,4-diamine]	91%	75%	90%
Cc1cccc(-c2nc(N)nc(Nc3ccc(C(C)C)cc3)n2)c1 [Compound 59, N ^2-(4-Isopropylphenyl)-6-(3-methylphenyl)-1,3,5-triazine-2,4-diamine]	87%	76%	93%
Cc1ccc(-c2nc(N)nc(Nc3ccccc3)n2)cc1 [Compound 60]	84%	100%	100%
Cc1ccc(-c2nc(N)nc(Nc3ccc(Br)cc3)n2)cc1 [Compound 63]	87%	93%	100%
Cc1ccc(Nc2nc(N)nc(-c3ccc(C)cc3)n2)cc1 [Compound 64]	59%	86%	92%
COc1ccc(Nc2nc(N)nc(-c3ccc(C)cc3)n2)cc1 [Compound 66]	83%	100%	89%
Cc1ccc(-c2nc(N)nc(Nc3ccc(OC(F)(F)F)cc3)n2)cc1 [Compound 67]	92%	93%	84%
Cc1ccc(-c2nc(N)nc(Nc3ccc(C(C)C)cc3)n2)cc1 [Compound 68]	76%	100%	91%
Cc1ccc(-c2nc(N)nc(Nc3cccnc3)n2)cc1 [Compound 69]	74%	88%	79%
COc1ccc(-c2nc(N)nc(Nc3ccc(F)cc3)n2)cc1 [Compound 72]	68%	100%	100%
COc1ccc(-c2nc(N)nc(Nc3ccc(Cl)cc3)n2)cc1 [Compound 75]	99%	100%	100%
COc1ccc(-c2nc(N)nc(Nc3ccc(Br)cc3)n2)cc1 [Compound 76]	96%	91%	100%
COc1ccc(-c2nc(N)nc(Nc3ccc(OC(F)(F)F)cc3)n2)cc1 [Compound 79]	74%	95%	84%
COc1ccc(-c2nc(N)nc(Nc3ccc(C(C)C)cc3)n2)cc1 [Compound 80]	92%	100%	86%
Nc1nc(Nc2ccccc2)nc(-c2ccc(C(F)(F)F)cc2)n1 [Compound 82]	55%	96%	97%
Nc1nc(Nc2ccccc2F)nc(-c2ccc(C(F)(F)F)cc2)n1 [Compound 83]	55%	93%	71%
Nc1nc(Nc2ccc(Cl)cc2)nc(-c2ccc(C(F)(F)F)cc2)n1 [Compound 85]	90%	99%	77%
Cc1ccc(Nc2nc(N)nc(-c3ccc(C(F)(F)F)cc3)n2)cc1 [Compound 86]	54%	83%	95%
COc1ccccc1Nc1nc(N)nc(-c2ccc(C(F)(F)F)cc2)n1 [Compound 87]	63%	100%	85%
COc1ccc(Nc2nc(N)nc(-c3ccc(C(F)(F)F)cc3)n2)cc1 [Compound 88]	81%	100%	86%
Nc1nc(Nc2ccccc2)nc(-c2ccc(OC(F)(F)F)cc2)n1 [Compound 89]	59%	95%	90%
Nc1nc(Nc2ccccc2F)nc(-c2ccc(OC(F)(F)F)cc2)n1 [Compound 90]	60%	90%	80%
Nc1nc(Nc2ccccc2Cl)nc(-c2ccc(OC(F)(F)F)cc2)n1 [Compound 92]	74%	96%	86%

Compound	viability at 10 µM [1]	viability at 10 µM [2]	viability at 10 µM [3]
Nc1nc(Nc2ccc(Br)cc2)nc(-c2ccc(OC(F)(F)F)cc2)n1 [Compound 93]	83%	90%	96%
Cc1ccc(Nc2nc(N)nc(-c3ccc(OC(F)(F)F)cc3)n2)cc1 [Compound 94]	79%	97%	87%
COc1ccc(Nc2nc(N)nc(-c3ccc(OC(F)(F)F)cc3)n2)cc1 [Compound 96]	69%	87%	88%
Nc1nc(Nc2ccc(OC(F)(F)F)cc2)nc(-c2ccc(OC(F)(F)F)cc2)n1 [Compound 97]	92%	100%	80%
CC(C)c1ccc(Nc2nc(N)nc(-c3ccc(OC(F)(F)F)cc3)n2)cc1 [Compound 98]	100%	95%	90%
CC(C)c1ccc(Nc2nc(N)nc(-c3ccc(N(C)C)cc3)n2)cc1 [Compound 104]	70%	100%	87%
CC(C)(C)c1ccc(-c2nc(N)nc(Nc3ccccc3)n2)cc1 [Compound 105]	74%	96%	100%
CC(C)(C)c1ccc(-c2nc(N)nc(Nc3ccc(F)cc3)n2)cc1 [Compound 106]	97%	88%	84%
CC(C)(C)c1ccc(-c2nc(N)nc(Nc3ccc(Cl)cc3)n2)cc1 [Compound 107]	100%	98%	92%
CC(C)(C)c1ccc(-c2nc(N)nc(Nc3ccc(Br)cc3)n2)cc1 [Compound 108]	59%	99%	98%
COc1ccc(Nc2nc(N)nc(-c3ccc(C(C)(C)C)cc3)n2)cc1 [Compound 109]	91%	93%	85%
Nc1nc(Nc2ccc(Br)cc2)nc(-c2ccc(OCc3ccccc3)cc2)n1 [Compound 112]	82%	97%	93%
Cc1ccc(Nc2nc(N)nc(-c3ccc(OCc4ccccc4)cc3)n2)cc1 [Compound 113]	82%	100%	94%
Nc1nc(Nc2ccc(OC(F)(F)F)cc2)nc(-c2ccc(OCc3ccccc3)cc2)n1 [Compound 114]	71%	100%	87%
Nc1nc(Nc2ccccc2)nc(-c2cccs2)n1 [Compound 115]	100%	91%	87%
Nc1nc(Nc2ccccc2F)nc(-c2cccs2)n1 [Compound 116, N ^2-(2-Fluorophenyl)-6-(thiophen-2-yl)-1,3,5-triazine-2,4-diamine]	98%	90%	78%
Nc1nc(Nc2ccc(F)cc2)nc(-c2cccs2)n1 [Compound 117]	100%	92%	86%
Nc1nc(Nc2ccccc2Cl)nc(-c2cccs2)n1 [Compound 118]	100%	91%	78%
Nc1nc(Nc2ccc(Cl)cc2)nc(-c2cccs2)n1 [Compound 119]	100%	98%	89%
COc1ccc(Nc2nc(N)nc(-c3cccs3)n2)cc1 [Compound 123, N ^2-(4-Methoxyphenyl)-6-(thiophen-2-yl)-1,3,5-triazine-2,4-diamine]	93%	80%	88%
Nc1nc(Nc2ccc(OC(F)(F)F)cc2)nc(-c2cccs2)n1 [Compound 124]	100%	85%	86%
CC(C)c1ccc(Nc2nc(N)nc(-c3cccs3)n2)cc1 [Compound 125]	100%	89%	86%
Nc1nc(Nc2cccnc2)nc(-c2cccs2)n1 [Compound 126]	100%	86%	91%
